Like-named read-outs stand apart in the source and are kept apart here. Where a SMILES comes first, the peptide text is derived from it. [ ]: non-standard residue; d: D form. The star is where a group is joined. Lauroyl = CCCCCCCCCCCC(=O)*; Hexanoyl = CCCCCC(=O)*; Butyryl = CCCC(=O)*
Columns and labels:
horse erythrocytes [1] = experiment: Hemolytic activity (hemoglobin release from erythrocytes); type: cell-based; settings: 37 °C, relative to melittin, ± confidence interval (α = 0.05)
Procedure: The hemolytic activity of the compounds was evaluated by determining hemoglobin release from erythrocyte suspensions of horse blood (5% vol/vol) (Oxoid) as previously described. Blood was centrifuged at 6000 g for 5 min, washed three times with tris(hydroxymethyl)aminomethane (TRIS) buffer (10 mM TRIS, 150 mM NaCl, pH 7.2) and diluted 10 times. Compounds were solubilized in TRIS buffer at 750, 500, 300 and 100 μM and mixed with horse erythrocytes (1:1 v/v). The mixture was incubated under continuous shaking for 1 h at 37 °C. Then, the tubes were centrifuged at 3500 g for 10 min, 80 μL aliquots of the supernatant transferred to 100-well microplates (Bioscreen), diluted with 80 μL water, and the absorbance measured at 540 nm (Bioscreen). Complete hemolysis was obtained by the addition of melittin at 100 μM (Sigma-Aldrich Corporation, Madrid, Spain). The percentage of hemolysis (H) was calculated using the equation: H = 100 × [(Op−Ob)/(Om−Ob)], where Op is the density for a given compound concentration, Ob for the buffer, and Om for the melittin-positive control.

tobacco leaves [2] = experiment: Effect of peptide infiltration on tobacco leaves (lesion size); type: in vivo; settings: ± confidence interval; for Size of the lesion (mm) 50 µM: 100 µL infiltrated into mesophyll of tobacco leaves
Procedure: The lipopeptides were evaluated for their effect upon infiltration on tobacco leaves as described previously. Peptide solutions of 50, 150 and 250 μM were infiltrated (100 μL) into the mesophylls of fully expanded tobacco leaves. Infiltrations were carried out in a single leaf, and for each peptide and dose, at least three leaves randomly distributed in different plants were infiltrated. Control infiltrations with water (negative control) or melittin (positive control) at the same molar concentration were performed. The appearance of symptoms on the leaves was followed for 48 h after infiltration and measured as a lesion diameter.

horse erythrocytes [3] = tested on: horse erythrocytes; design: method as in earlier work; settings: all-L parent lipopeptides, ± confidence interval (α = 0.05), cited from earlier work
tobacco leaves [4] = tested on: tobacco leaves; design: method as in earlier work; settings: all-L parent lipopeptides, ± confidence interval, cited from earlier work
[5] = D-amino acid lipopeptides, lesion diameter, 48 h, at least three leaves
[6] = D-amino acid lipopeptides, 100 µL infiltrated into tobacco leaves, lesion diameter, 48 h, at least three leaves
[7] = D-amino acid lipopeptides, 250 µM, 100 µL infiltrated into tobacco leaves, lesion diameter, 48 h, at least three leaves
[8] = Table 2, 250 µM infiltrated into tobacco leaves
[9] = D-amino acid lipopeptides, 250 µM, TRIS buffer pH 7.2, 1 h
[10] = D-amino acid lipopeptides, TRIS buffer pH 7.2, 1 h

Compound	Hemolysis (%) 250 µM (horse erythrocytes [1]; Table 2, 250 µM, 1 h) [%]	Size of the lesion (mm) 50 µM (tobacco leaves [2]; [5]) [mm]	Size of the lesion (mm) 150 µM (tobacco leaves [2]; [6]) [mm]	Size of the lesion (mm) 250 µM (tobacco leaves [2]; [7]) [mm]	Size of the lesion (mm) 250 µM (tobacco leaves [2]; [8]) [mm]	Hemolysis (%) 250 µM (horse erythrocytes [1]; [9]) [%]	Hemolysis (%) 375 µM (horse erythrocytes [1]; [10]) [%]	Hemolysis (%) 150 µM (horse erythrocytes [1]; [10]) [%]	Hemolysis (%) 50 µM (horse erythrocytes [3]; 50 µM) [%]	Hemolysis (%) 250 µM (horse erythrocytes [3]; 250 µM) [%]	Hemolysis (%) 375 µM (horse erythrocytes [3]; 375 µM) [%]	Size of the lesion (mm) 50 µM (tobacco leaves [4]; 50 µM) [mm]	Size of the lesion (mm) 150 µM (tobacco leaves [4]; 150 µM) [mm]	Size of the lesion (mm) 250 µM (tobacco leaves [4]; 250 µM) [mm]
CCCCCC(=O)NCCCC[C@H](NC(=O)[C@H](Cc1ccc(O)cc1)NC(=O)[C@H](CCCCN)NC(=O)[C@H](CC(C)C)NC(=O)[C@@H](NC(=O)[C@H](CCCCN)NC(=O)[C@H](CCCCN)NC(=O)[C@@H](Cc1ccccc1)NC(=O)[C@H](CC(C)C)NC(=O)[C@H](CCCCN)NC(=O)[C@H](CCCCN)NC(C)=O)[C@@H](C)CC)C(N)=O [BP495, Ac-KKLfKKILKYK(COC5H11)-NH2] (Ac-KKL[dF]KKILKYK(Hexanoyl)-NH2)	0.6 ± 1	3 ± 0	6 ± 2	11 ± 2	11 ± 2									
CCCC(=O)NCCCC[C@H](NC(=O)[C@H](Cc1ccc(O)cc1)NC(=O)[C@H](CCCCN)NC(=O)[C@H](CC(C)C)NC(=O)[C@@H](NC(=O)[C@H](CCCCN)NC(=O)[C@H](CCCCN)NC(=O)[C@@H](Cc1ccccc1)NC(=O)[C@H](CC(C)C)NC(=O)[C@H](CCCCN)NC(=O)[C@H](CCCCN)NC(C)=O)[C@@H](C)CC)C(N)=O [BP496, Ac-KKLfKKILKYK(COC3H7)-NH2] (Ac-KKL[dF]KKILKYK(Butyryl)-NH2)		3 ± 0.5	4 ± 0.5	10 ± 3	10 ± 3	1 ± 1	1 ± 0.5							
CCCCCCCCCCCC(=O)NCCCC[C@H](NC(=O)[C@H](CC(C)C)NC(=O)[C@@H](NC(=O)[C@H](CCCCN)NC(=O)[C@H](CCCCN)NC(=O)[C@@H](Cc1ccccc1)NC(=O)[C@H](CC(C)C)NC(=O)[C@H](CCCCN)NC(=O)[C@H](CCCCN)NC(C)=O)[C@@H](C)CC)C(=O)N[C@@H](Cc1ccc(O)cc1)C(=O)N[C@@H](CC(C)C)C(N)=O [BP497, Ac-KKLfKKILK(COC11H23)YL-NH2]		5 ± 1	18 ± 1	18 ± 0	18 ± 0	100 ± 2	100 ± 4	100 ± 2						
CCCC(=O)NCCCC[C@H](NC(=O)[C@@H](Cc1ccccc1)NC(=O)[C@H](CC(C)C)NC(=O)[C@H](CCCCN)NC(=O)[C@H](CCCCN)NC(C)=O)C(=O)N[C@@H](CCCCN)C(=O)N[C@H](C(=O)N[C@@H](CC(C)C)C(=O)N[C@@H](CCCCN)C(=O)N[C@@H](Cc1ccc(O)cc1)C(=O)N[C@@H](CC(C)C)C(N)=O)[C@@H](C)CC [BP498, Ac-KKLfK(COC3H7)KILKYL-NH2]		4 ± 3	6 ± 2	6 ± 1	6 ± 1	21 ± 3								
CCCC(=O)NCCCC[C@H](NC(=O)[C@H](CC(C)C)NC(=O)[C@@H](NC(=O)[C@H](CCCCN)NC(=O)[C@H](CCCCN)NC(=O)[C@@H](Cc1ccccc1)NC(=O)[C@H](CC(C)C)NC(=O)[C@H](CCCCN)NC(=O)[C@H](CCCCN)NC(C)=O)[C@@H](C)CC)C(=O)N[C@@H](Cc1ccc(O)cc1)C(=O)N[C@@H](CC(C)C)C(N)=O [BP499, Ac-KKLfKKILK(COC3H7)YL-NH2]		6 ± 1	8 ± 2	8 ± 2	8 ± 2	11 ± 1								
CCCCCCCCCCCC(=O)NCCCC[C@H](NC(=O)[C@H](CCCCN)NC(=O)[C@H](CCCCN)NC(C)=O)C(=O)N[C@H](Cc1ccccc1)C(=O)N[C@@H](CCCCN)C(=O)N[C@@H](CCCCN)C(=O)N[C@H](C(=O)N[C@@H](CC(C)C)C(=O)N[C@@H](CCCCN)C(=O)N[C@@H](Cc1ccc(O)cc1)C(=O)N[C@@H](CC(C)C)C(N)=O)[C@@H](C)CC [BP500, Ac-KKK(COC11H23)fKKILKYL-NH2] (Ac-KKK(Lauroyl)[dF]KKILKYL-NH2)		3 ± 2	6 ± 2	9 ± 3	9 ± 3	71 ± 8		71 ± 2						
Ac-KKLFKKILKK(COC3H7)L-NH2 [BP389, analog of BP475 with all L-amino acids]									9 ± 4	22 ± 2	39 ± 3	4 ± 1	7 ± 1	9 ± 3
